PubChem BioAssay (NCI)
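Five compound concentrations were applied to cells in 96-well plates for 48 hours; endpoints were derived by simple linear interpolation of the resulting dose-response curve. GI50 marks 50% less growth. TGI denotes the concentration required for complete inhibition of growth.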

Experiments:
Assay in all cases: NCI-60 cell line screen, 48 h
[1] = system: NCI-H522 lung
[2] = system: A549 NSCLC
[3] = system: ACHN renal
[4] = system: SF-268 CNS
[5] = system: A498 renal
[6] = system: OVCAR-4 ovarian
[7] = system: OVCAR-8 ovarian
[8] = system: RXF 393 renal
[9] = system: HT29 colon
[10] = system: MOLT-4 leukemia
[11] = system: U251 CNS
[12] = system: NCI/ADR-RES ovarian
[13] = system: T-47D breast
[14] = system: TK-10 renal
[15] = system: PC-3 prostate
[16] = system: HCT-116 colon
[17] = system: SW-620 colon
[18] = system: SK-MEL-5 melanoma
[19] = system: HCT-15 colon
[20] = system: LOX IMVI melanoma
[21] = system: IGROV1 ovarian
[22] = system: CAKI-1 renal
[23] = system: OVCAR-5 ovarian
[24] = system: SN12C renal
[25] = system: UO-31 renal
[26] = system: 786-0 renal
[27] = system: NCI-H23 lung
[28] = system: SK-MEL-28 melanoma

SMILES: COC(=O)C(Cc1cnc[nH]1)NC(=O)CNC(=O)CCCn1c(=O)c2c3ccccc3n(C)c2n2nnc(-c3ccccc3)c12 (stereo not given)
- TGI [1]: > 100 µM
- GI50 [2]: > 100 µM
- TGI [2]: > 100 µM
- GI50 [3]: > 100 µM
- TGI [3]: > 100 µM
- GI50 [4]: > 100 µM
- TGI [4]: > 100 µM
- GI50 [5]: > 100 µM
- TGI [5]: > 100 µM
- GI50 [6]: > 100 µM
- TGI [6]: > 100 µM
- GI50 [7]: > 100 µM
- TGI [7]: > 100 µM
- GI50 [8]: > 100 µM
- TGI [8]: > 100 µM
- GI50 [9]: > 100 µM
- TGI [9]: > 100 µM
- GI50 [10]: > 100 µM
- TGI [10]: > 100 µM
- GI50 [11]: > 100 µM
- TGI [11]: > 100 µM
- GI50 [12]: > 100 µM
- TGI [12]: > 100 µM
- GI50 [13]: > 100 µM
- TGI [13]: > 100 µM
- GI50 [14]: > 100 µM
- TGI [14]: > 100 µM
- GI50 [15]: 30.1 µM
- TGI [15]: > 100 µM
- GI50 [16]: > 100 µM
- TGI [16]: > 100 µM
- GI50 [17]: > 100 µM
- TGI [17]: > 100 µM
- GI50 [18]: > 100 µM
- TGI [18]: > 100 µM
- GI50 [19]: > 100 µM
- TGI [19]: > 100 µM
- GI50 [20]: > 100 µM
- TGI [20]: > 100 µM
- GI50 [21]: 72.5 µM
- TGI [21]: > 100 µM
- GI50 [22]: > 100 µM
- TGI [22]: > 100 µM
- GI50 [23]: > 100 µM
- TGI [23]: > 100 µM
- GI50 [24]: > 100 µM
- TGI [24]: > 100 µM
- GI50 [25]: > 100 µM
- TGI [25]: > 100 µM
- GI50 [26]: > 100 µM
- TGI [26]: > 100 µM
- GI50 [27]: > 100 µM
- TGI [27]: > 100 µM
- GI50 [28]: > 100 µM
- TGI [28]: > 100 µM
